Results published in patent publication US9212173B2, “Pyrazole aminopyrimidine derivatives as LRRK2 modulators” (Genentech, Inc., priority 2012, dated 2015).

Each compound was assayed against LRRK2 (Homo sapiens (Human), UniProt Q5S007, G2019S) (assay: In Vitro LRRK2 Assay (LRRK2 Ki)).
Assay type: biochemical
Protocol: In Vitro LRRK2 Lanthascreen Binding Assay
This assay was used to determine a compound's potency in inhibiting activity of LRRK2 by determining, Kiapp, IC50, or percent inhibition values.
Binding of the Alexa Fluor® “tracer” to a kinase is detected by addition of a Eu-labeled anti-GST antibody.
12 pt curve. […] Stamp 5 ul to assay plate. Final top test concentration 100 uM
In Reaction Buffer, 5 ul of DMSO (3%) was added to total and blank wells and 5 ul of Eu-labeled anti-GST antibody (6 nM) was added to blank wells. Add 5 ul LRRK2 (30 nM)/Eu-labeled anti-GST antibody (6 nM) mix to compound and total wells.
Incubate plates at room temperature for 1 hour on a plate shaker (gentle shaking). Read on Perkin Elmer EnVision reader HTRF protocol
Subtract mean background values from all data points. Calculate % of control for each test value. Plot % of control vs Compound concentration. Calculate Ki Value (xlfit curve fitting-Morrison equation). Results expressed as a Ki in μM. Equation for Ki: Y=V0*(1−((x+Ki*(1+S/Km)+Et)/(2*Et)−(((x+Ki*(1+S/Km)+Et)^2−(4*Et*x))^0.5)/(2*Et)))
This assay was used to determine a compound's potency in inhibiting activity of LRRK2 by determining, Kiapp, IC50, or percent inhibition values. In a polypropylene plate, LRRK2, fluorescently-labeled peptide substrate, ATP and test compound were incubated together. Using a LabChip 3000 (Caliper Life Sciences), after the reaction the substrate was separated by capillary electrophoresis into two populations: phosphorylated and unphosphorylated. The relative amounts of each were quantitated by fluorescence intensity. LRRK2 Ki was determined according to the equation: Y=V0*(1−((x+Ki*(1+S/Km)+Et)/(2*Et)−(((x+Ki*(1+S/Km)+Et)^2−(4*Et*x))^0.5)/(2*Et))).
Ki values in Table 4 and elsewhere herein are shown in μM.
For serial dilutions, 34.6 μl DMSO was added to columns 3-24.
In Complete Reaction Buffer, substrate was diluted to 4 μM. Equal volumes of Complete Reaction Buffer and 4 μM substrate were combined to obtain the blank. Equal volumes of Complete Reaction Buffer and 4 μM substrate were combined and to the combined solution was added 2× final LRRK2 concentration.
To a 50 μl polypropylene plate, 5 μl/well buffer/substrate was added by hand to Blank wells. A Biomek FX was used to start the kinase reaction (“PLK SAR 23 ATP”). The following were added to the appropriate wells:
The plate was incubated for 2 hours in the dark. Biomek FX was used to stop the kinase reaction (“PLK Stop”), and 10 μl/well Stop solution was added to the Assay Plate. Results were read on the LabChip 3000.
The LabChip 3000 was run using the job “LRRK2 IC50” with the following job settings: […]

Chain of LRRK2 (Q5S007 whole entry G2019S): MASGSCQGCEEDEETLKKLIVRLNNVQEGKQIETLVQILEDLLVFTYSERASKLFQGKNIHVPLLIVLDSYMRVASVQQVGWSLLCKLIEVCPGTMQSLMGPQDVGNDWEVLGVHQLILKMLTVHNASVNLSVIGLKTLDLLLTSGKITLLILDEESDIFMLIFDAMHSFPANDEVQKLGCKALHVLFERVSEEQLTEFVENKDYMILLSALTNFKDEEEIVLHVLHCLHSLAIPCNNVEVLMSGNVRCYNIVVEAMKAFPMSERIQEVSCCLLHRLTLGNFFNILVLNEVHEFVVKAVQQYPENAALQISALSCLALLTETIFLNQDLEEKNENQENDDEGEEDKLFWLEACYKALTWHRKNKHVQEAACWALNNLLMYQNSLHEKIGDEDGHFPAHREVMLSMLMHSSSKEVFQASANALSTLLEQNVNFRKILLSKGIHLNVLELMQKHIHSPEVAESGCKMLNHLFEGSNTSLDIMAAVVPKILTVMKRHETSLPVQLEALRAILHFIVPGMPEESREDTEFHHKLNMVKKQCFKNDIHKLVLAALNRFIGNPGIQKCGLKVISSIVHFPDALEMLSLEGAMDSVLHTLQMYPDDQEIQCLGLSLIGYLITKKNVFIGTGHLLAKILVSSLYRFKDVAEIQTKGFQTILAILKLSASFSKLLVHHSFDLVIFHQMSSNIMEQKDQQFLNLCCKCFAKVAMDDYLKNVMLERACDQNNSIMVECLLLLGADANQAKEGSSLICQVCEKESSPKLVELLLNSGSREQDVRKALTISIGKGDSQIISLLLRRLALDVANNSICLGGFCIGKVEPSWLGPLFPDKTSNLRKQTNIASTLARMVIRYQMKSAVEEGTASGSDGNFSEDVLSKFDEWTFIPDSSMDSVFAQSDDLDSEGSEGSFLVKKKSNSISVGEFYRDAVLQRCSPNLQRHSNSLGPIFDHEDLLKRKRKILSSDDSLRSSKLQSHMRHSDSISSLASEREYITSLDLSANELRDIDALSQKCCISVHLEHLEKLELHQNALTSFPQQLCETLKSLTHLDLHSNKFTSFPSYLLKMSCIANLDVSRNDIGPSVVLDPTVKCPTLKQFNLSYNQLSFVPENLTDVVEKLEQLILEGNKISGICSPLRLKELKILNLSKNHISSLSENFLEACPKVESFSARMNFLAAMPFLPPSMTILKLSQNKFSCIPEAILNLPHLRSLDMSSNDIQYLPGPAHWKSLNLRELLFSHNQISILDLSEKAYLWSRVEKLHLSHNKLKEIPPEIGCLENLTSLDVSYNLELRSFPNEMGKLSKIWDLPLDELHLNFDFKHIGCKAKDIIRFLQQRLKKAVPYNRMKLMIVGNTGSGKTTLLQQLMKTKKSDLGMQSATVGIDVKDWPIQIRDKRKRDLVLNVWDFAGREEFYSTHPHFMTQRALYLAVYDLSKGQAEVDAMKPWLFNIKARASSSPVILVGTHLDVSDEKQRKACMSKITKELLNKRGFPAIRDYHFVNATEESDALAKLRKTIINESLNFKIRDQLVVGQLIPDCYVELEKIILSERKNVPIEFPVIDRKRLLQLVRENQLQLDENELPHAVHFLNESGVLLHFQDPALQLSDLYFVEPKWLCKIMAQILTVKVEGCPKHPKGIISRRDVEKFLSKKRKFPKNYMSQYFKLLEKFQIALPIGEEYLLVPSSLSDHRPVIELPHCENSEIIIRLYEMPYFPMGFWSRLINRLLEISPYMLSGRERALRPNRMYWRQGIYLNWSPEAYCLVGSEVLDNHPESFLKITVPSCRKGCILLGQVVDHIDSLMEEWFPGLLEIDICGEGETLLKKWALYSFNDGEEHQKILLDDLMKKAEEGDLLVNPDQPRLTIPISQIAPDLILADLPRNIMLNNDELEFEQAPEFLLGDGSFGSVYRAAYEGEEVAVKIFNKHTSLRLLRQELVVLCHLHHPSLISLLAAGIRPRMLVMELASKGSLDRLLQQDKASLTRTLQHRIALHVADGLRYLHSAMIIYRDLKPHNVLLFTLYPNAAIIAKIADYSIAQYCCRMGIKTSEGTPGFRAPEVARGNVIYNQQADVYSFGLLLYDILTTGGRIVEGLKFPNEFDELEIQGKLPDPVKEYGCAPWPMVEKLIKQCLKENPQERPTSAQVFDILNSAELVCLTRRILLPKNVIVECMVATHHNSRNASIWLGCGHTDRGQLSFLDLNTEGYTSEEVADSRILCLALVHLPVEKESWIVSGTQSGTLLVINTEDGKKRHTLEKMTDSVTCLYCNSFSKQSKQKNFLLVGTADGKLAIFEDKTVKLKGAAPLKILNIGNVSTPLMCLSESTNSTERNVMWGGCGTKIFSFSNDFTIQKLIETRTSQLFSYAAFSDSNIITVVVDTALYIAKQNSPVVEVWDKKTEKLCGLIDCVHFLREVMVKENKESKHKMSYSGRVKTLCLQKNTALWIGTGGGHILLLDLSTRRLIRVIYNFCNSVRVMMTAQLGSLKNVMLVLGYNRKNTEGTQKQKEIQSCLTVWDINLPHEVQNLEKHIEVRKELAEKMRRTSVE

Row | SMILES | Ki [nM]
1 | CNc1nc(Nc2cnn(C3CCOC[C@H]3F)c2C)ncc1C(F)(F)F (stereo in doubt) [Example 39, N2-(1-(3-fluorotetrahydro-2H-pyran-4-yl)-5-methyl-1H-pyrazol-4-yl)-N4-methyl-5-(trifluoromethyl)pyrimidine-2,4-diamine] | 2.8
2 | Cc1c(Nc2ncc(C#N)c(NC3CC3)n2)cnn1C1CCOCC1 [Example 3, 4-(cyclopropylamino)-2-((5-methyl-1-(tetrahydro-2H-pyran-4-yl)-1H-pyrazol-4-yl)amino)pyrimidine-5-carbonitrile] | 7.3
3 | CNc1nc(Nc2cn(C(C)(C)CO)nc2C)ncc1C(F)(F)F [Example 9, 2-methyl-2-(3-methyl-4-((4-(methylamino)-5-(trifluoromethyl)pyrimidin-2-yl)amino)-1H-pyrazol-1-yl)propan-1-ol] | 4.8
4 | CNc1nc(Nc2cnn(CC3(O)CC3)c2Cl)ncc1C(F)(F)F [Example 10, 1-((5-chloro-4-((4-(methylamino)-5-(trifluoromethyl)pyrimidin-2-yl)amino)-1H-pyrazol-1-yl)methyl)cyclopropanol] | 5
5 | CNc1nc(Nc2cn(C(C)(C)c3nc(C)cn3C)nc2C)ncc1C(F)(F)F [Example 16, N2-(1-(2-(1,4-dimethyl-1H-imidazol-2-yl)propan-2-yl)-3-methyl-1H-pyrazol-4-yl)-N4-methyl-5-(trifluoromethyl)pyrimidine-2,4-diamine] | 140
6 | CCNc1nc(Nc2cn(C3(C)COC3)nc2C)ncc1C(F)(F)F [Example 19, N4-ethyl-N2-(3-methyl-1-(3-methyloxetan-3-yl)-1H-pyrazol-4-yl)-5-(trifluoromethyl)pyrimidine-2,4-diamine] | 0.975
7 | CCNc1nc(Nc2cnn(C(C)(C)c3nncn3C)c2Cl)ncc1C(F)(F)F [Example 23, N2-(5-chloro-1-(2-(4-methyl-4H-1,2,4-triazol-3-yl)propan-2-yl)-1H-pyrazol-4-yl)-N4-ethyl-5-(trifluoromethyl)pyrimidine-2,4-diamine] | 1.1
8 | CNc1nc(Nc2cn(C(C)(C)c3ncccn3)nc2C)ncc1C(F)(F)F [Example 26, N4-methyl-N2-(3-methyl-1-(2-(pyrimidin-2-yl)propan-2-yl)-1H-pyrazol-4-yl)-5-(trifluoromethyl)pyrimidine-2,4-diamine] | 4.3
9 | CCNc1nc(Nc2cn(C(C)(C)c3nnc(CC)o3)nc2C)ncc1C(F)(F)F [Example 29, N4-ethyl-N2-(1-(2-(5-ethyl-1,3,4-oxadiazol-2-yl)propan-2-yl)-3-methyl-1H-pyrazol-4-yl)-5-(trifluoromethyl)pyrimidine-2,4-diamine] | 6.5
10 | CCNc1nc(Nc2cn(C(C)(C)c3nncn3C)nc2Cl)ncc1C(F)(F)F [Example 31, N2-(3-chloro-1-(2-(4-methyl-4H-1,2,4-triazol-3-yl)propan-2-yl)-1H-pyrazol-4-yl)-N4-ethyl-5-(trifluoromethyl)pyrimidine-2,4-diamine] | 42.5
11 | CCNc1nc(Nc2cn(C(C)(C)c3ncn(C)n3)nc2Cl)ncc1C(F)(F)F [Example 32, N2-(3-chloro-1-(2-(1-methyl-1H-1,2,4-triazol-3-yl)propan-2-yl)-1H-pyrazol-4-yl)-N4-ethyl-5-(trifluoromethyl)pyrimidine-2,4-diamine] | 0.5
12 | CNc1nc(Nc2cn(CCc3ccn(C)n3)nc2C)ncc1C(F)(F)F [Example 36, N4-methyl-N2-(3-methyl-1-(2-(1-methyl-1H-pyrazol-3-yl)ethyl)-1H-pyrazol-4-yl)-5-(trifluoromethyl)pyrimidine-2,4-diamine] | 3.7

Continued, values first:

Row | Ki [nM] | SMILES
13 | 0.6 | CNc1nc(Nc2cn(C3CCOC[C@H]3F)nc2C)ncc1C(F)(F)F (stereo in doubt) [Example 37, N2-(1-(3-fluorotetrahydro-2H-pyran-4-yl)-3-methyl-1H-pyrazol-4-yl)-N4-methyl-5-(trifluoromethyl)pyrimidine-2,4-diamine]
14 | 6.2 | CCNc1nc(Nc2cnn(C3CCOCC3)c2Cl)ncc1C#N [Example 7, 2-((5-chloro-1-(tetrahydro-2H-pyran-4-yl)-1H-pyrazol-4-yl)amino)-4-(ethylamino)pyrimidine-5-carbonitrile]
15 | 4.8 | CNc1nc(Nc2cn(C3(C)COC3)nc2C)ncc1C(F)(F)F [Example 15, N4-methyl-N2-(3-methyl-1-(3-methyloxetan-3-yl)-1H-pyrazol-4-yl)-5-(trifluoromethyl)pyrimidine-2,4-diamine]
16 | 3.82 | CNc1nc(Nc2cn(C(C)(C)c3ncc(C)o3)nc2C)ncc1C(F)(F)F [Example 18, N4-methyl-N2-(3-methyl-1-(2-(5-methyloxazol-2-yl)propan-2-yl)-1H-pyrazol-4-yl)-5-(trifluoromethyl)pyrimidine-2,4-diamine]
17 | 0.96 | CCNc1nc(Nc2cn(S(=O)(=O)CCOC)nc2C)ncc1C(F)(F)F [Example 20, N4-ethyl-N2-(1-((2-methoxyethyl)sulfonyl)-3-methyl-1H-pyrazol-4-yl)-5-(trifluoromethyl)pyrimidine-2,4-diamine]
18 | 1.85 | CNc1nc(Nc2cn(S(=O)(=O)CCOC)nc2C)ncc1C(F)(F)F [Example 21, N2-(1-((2-methoxyethyl)sulfonyl)-3-methyl-1H-pyrazol-4-yl)-N4-methyl-5-(trifluoromethyl)pyrimidine-2,4-diamine]
19 | 6.46 | CNc1nc(Nc2cnn(S(=O)(=O)CCOC)c2C)ncc1C(F)(F)F [Example 22, N2-(1-((2-methoxyethyl)sulfonyl)-5-methyl-1H-pyrazol-4-yl)-N4-methyl-5-(trifluoromethyl)pyrimidine-2,4-diamine]
20 | 16.6 | CNc1nc(Nc2cnn(CC(C)c3ccn(C)n3)c2C)ncc1C(F)(F)F (stereo not shown) [Example 24, N4-methyl-N2-(5-methyl-1-(2-(1-methyl-1H-pyrazol-3-yl)propyl)-1H-pyrazol-4-yl)-5-(trifluoromethyl)pyrimidine-2,4-diamine]
21 | 108 | CNc1nc(Nc2cnn(CC(C)c3ccn(C)n3)c2C)ncc1C(F)(F)F (stereo not shown) [Example 25, N4-methyl-N2-(5-methyl-1-(2-(1-methyl-1H-pyrazol-3-yl)propyl)-1H-pyrazol-4-yl)-5-(trifluoromethyl)pyrimidine-2,4-diamine]
22 | 3.7 | CCNc1nc(Nc2cn(C(C)(C)c3nnc(C)o3)nc2Cl)ncc1C(F)(F)F [Example 27, N2-(3-chloro-1-(2-(5-methyl-1,3,4-oxadiazol-2-yl)propan-2-yl)-1H-pyrazol-4-yl)-N4-ethyl-5-(trifluoromethyl)pyrimidine-2,4-diamine]
23 | 0.6 | CCNc1nc(Nc2cn(C(C)(C)c3ncn(C(C)C)n3)nc2C)ncc1C(F)(F)F [Example 30, N4-ethyl-N2-(1-(2-(1-isopropyl-1H-1,2,4-triazol-3-yl)propan-2-yl)-3-methyl-1H-pyrazol-4-yl)-5-(trifluoromethyl)pyrimidine-2,4-diamine]
24 | 2 | CNc1nc(Nc2cnn(CCc3ccn(C)n3)c2C)ncc1C(F)(F)F [Example 33, N4-methyl-N2-(5-methyl-1-(2-(1-methyl-1H-pyrazol-3-yl)ethyl)-1H-pyrazol-4-yl)-5-(trifluoromethyl)pyrimidine-2,4-diamine]
25 | 0.6 | CNc1nc(Nc2cnn(C3CCOC[C@@H]3F)c2C)ncc1C(F)(F)F (stereo partly drawn) [Example 40, N2-(1-((3R)-3-fluorotetrahydro-2H-pyran-4-yl)-5-methyl-1H-pyrazol-4-yl)-N4-methyl-5-(trifluoromethyl)pyrimidine-2,4-diamine]
